# Results reported in patent US10920191B2, “Methods of screening embryonic progenitor cell lines” (LINEAGE CELL THERAPEUTICS, INC., priority 2008, dated 2021).
# Tests used:
# Type in all cases: cell-based, human
# [1] = tested on: cell line Z2; experiment: Differentiation of cell line Z2 with individual differentiation factors, Illumina microarray readout
# Text: (§1) To reduce variations in gene expression due to cell cycle artifacts, and to capture an early gene expression profile of the cells, upon being expanded to six well plates, on the day the cells reached confluence, the cells were placed in media with a reduction of serum to 0.5% in the case where the original serum concentration was >5%. In all other cases, serum and/or other growth factors was reduced to 10% of their original values. These quiescence conditions were imposed for five days and all cultures were re-fed two days prior to harvest to reduce feeding difference artifacts. So, by way of example, if the original media was DMEM medium with 10% FCS, then the quiescence synchronization media was DMEM with 0.5% FCS. Total RNA was extracted directly from cells growing in 6-well or 6 cm tissue culture plates using Qiagen Rneasy mini kits according to the manufacturer's instructions. RNA concentrations were measured using a Beckman DU530 or Nanodrop spectrophotometer and RNA quality determined by denaturing agarose gel electrophoresis or an Agilent 2100 bioanalyzer. Whole-genome expression analysis was carried out using Affymetrix Human Genome U133 Plus 2.0 GeneChip® system, Illumina Human-6 v1 and HumanRef-8 v1 Beadchips (Illumina 1), and Illumina Human-6 v2 Beadchips (Illumina 2), and RNA levels for certain genes were confirmed by quantitative PCR. For Illumina BeadArrays, total RNA was linearly amplified and biotin-labeled using Illumina TotalPrep kits (Ambion), and cRNA was quality controlled using an Agilent 2100 Bioanalyzer. cRNA was hybridized to Illumina BeadChips, processed, and read using a BeadStation array reader according to the manufacturer's instructions (Illumina). Relative Fluorescence Unit (RFU) values for all of the cell lines with common probe sets were quantile normalized.
# The cell lines of the present invention 7SMOO7 (also designated ACTC298 and used at P18), C4.4 (also designated ACTC87 and used at P14), E44 (also designated ACTC170 and used at P18), E69 (also designated ACTC101 and used at P15), SK17 (also designated ACTC162 and used at P14), SK31 (also designated ACTC164 used at P15), SM35 (also designated ACTC260 used at P12), T36 (also designated ACTC198 used at P19), T43 (also designated ACTC120 used at P17), W11 (also designated ACTC197 used at P12), and Z2 (also designated ACTC255 used at P12), are cultured to five day quiescence as described herein or alternatively exposed to differentiation conditions of Differentiation Factor Protocol I in Table VIII. […] RNA was isolated as described herein and analyzed by Illumina microarrays. […]
# [2] = tested on: cell line SK17; experiment: Differentiation of cell line SK17 with individual differentiation factors, Illumina microarray readout; conditions: SK17, after day 14, retinoic acid added (1.0 uM)
# Text: as §1, with “So, by way of example, if the original media was DMEM medium with 10% FCS, then the quiescence synchronization media was DMEM with 0.5% FCS. Total RNA was extracted directly from cells growing in 6-well or 6 cm tissue culture plates using Qiagen Rneasy mini kits according to the manufacturer's instructions.” left out, “Relative Fluorescence Unit (RFU) values for all of the cell lines with common probe sets were quantile normalized.” left out
# [3] = tested on: cell line B16; experiment: Differentiation of cell line B16 in gels containing crosslinked hyaluronic acid and gelatin; conditions: B16, hyaluronic acid/gelatin hydrogel, in the presence of retinoic acid
# Text: The cell line of the present invention designated B16 (ACTC59) that expresses the unique pattern of markers MKX (accession number NM_173576.1), CDH10 (accession number NM_006727.2), MEG3 (accession number NR_002766.1), SCUBE3 (accession number NM_152753.2), and distal HOX genes HOXA11 (accession number NM_000522.3), and HOXD11 (accession number NM_021192.2) when synchronized at quiescence as described herein by culturing 5 days at confluence in DMEM medium with 0.5% serum at passage 16-19 was differentiated in micromass conditions and in a hydrogel containing crosslinked hyaluronic acid and gelatin with supplemented growth factors from Table III as described in Table VIII under the headings “In vitro conditions to induce chondrogenenesis—Micromass Culture” and “Differentiation in gels containing crosslinked hyaluronic acid and gelatin” in the presence of TGFβ3 and retinoic acid as also described in Table VIII under the subheadings “Differentiation in Hydrogels Containing Crosslinked Hyaluronic Acid and Gelatin to Induce Chondrogenesis” and “Retinoic acid and EGF-Containing HyStem-CSS” respectively. […]
# [4] = tested on: W10 cell line; experiment: Differentiation of cell line W10, two weeks of culture with retinoic acid; conditions: 1.0 uM all trans retinoic acid
# Text: The HAND2 and SCARA5 positive cell line W10 (also known as ACTC196) whose most distal HOX gene expression was HOXA4, B7, which is described in U.S. patent application Ser. No. 12/504,630 filed on Jul. 16, 2009 and titled “Methods to Accelerate the Isolation of Novel Cell Strains from Pluripotent Stem Cells and Cells Obtained Thereby”, incorporated herein by reference in its entirety, and whose gene expression markers at 18-21 doublings of clonal expansion are disclosed in Table 1, was passaged to P14. […] cells for 14 days under conditions described as In vitro conditions to induce chondrogenenesis—Micromass Culture in Table VIII, that are expected to cause chondrogenic differentiation in cells capable of such differentiation. […] The presence of MYH11 was confirmed by immunocytochemistry.
# [5] = Z2 (P12), 14 days, EGF 100 ng/ml, RFU >150 considered positive
molecule,measurement,setting,value
bFGF: growth factor used as individual differentiation factor,BMP7 expression by microarray,"[1]; Z2, 14 days, 10 ng/mL bFGF",196 RFU
"CC1=C(/C=C/C(C)=C/C=C/C(C)=C/C(=O)O)C(C)(C)CCC1 [retinoic acid, all-trans retinoic acid]",MYH11 (smooth muscle marker) expression by microarray,[2],1715 RFUs
same,renin (REN) expression by microarray,[2],markedly upregulated
same,NPPB (natriuretic peptide precursor B) expression,[3],"11,851 RFUs"
same,BMP7 expression by microarray,"[1]; Z2, 14 days, 1.0 uM retinoic acid",271 RFU
same,MYH11 expression,[4],induction of MYH11
recombinant human EGF: recombinant human EGF used as differentiation factor,BMP2 expression by microarray,[1]; [5],1015 RFU
same,BMP7 expression by microarray,[1]; [5],1084 RFU
